Experimental data taken from US11840495B2, “Compositions and methods related to di-substituted bicyclo[2.2.1] heptanamine-containing compounds” (The Broad Institute, Inc., priority 2020, dated 2023).
Where two headings read alike, the source gives them in different places.

Legend:
MUC1-fs = assay: Immunofluorescence imaging of MUC1-fs in P cells (Example 2); type: cell-based; details: for EC50: 48 hr incubation, MUC1-fs; for ECMax (%) / Emax: 48 hr; for ECMax (%): DMSO = 0, JQ1 (250 nM) = −100% activity; for Emax: DMSO = 0, JQ1 = −100% activity, in %
Experimental: (§1) P cells were seeded 24 hr prior to compound treatment at a density of 12,000 cells/well in 384 well Cell Carrier Ultra plates (6057308, Perkin Elmer), pre-coated with 0.25 mg/mL Synthemax II SC Substrate (3535, Corning). Compounds were used at 5 doses (35, 3.5, 0.35, 0.035 and 0.0035 μM) for the primary screen and 10 doses (16, 5.6, 1.8, 0.6, 0.21, 0.07, 0.02, 0.008, 0.002 and 0.0008 μM) for the following screens. The compounds, in two replicates, were transferred from compound source plates to the cell plates using the HighRes Pin Tool. DMSO was used as a negative control and JQ1 (250 nM) (a bromodomain inhibitor) was chosen as a positive control, based on earlier studies showing its potent effect on reducing total MUC1 mRNA levels (data not shown). After 48 hr incubation, cells were fixed for 20 min in 4% PFA (Electron Microscopy Sciences) in PBS, washed twice, then permeabilized (10 min) with 0.5% Triton-X100 (X100-100ML, Sigma-Aldrich) in PBS and washed once more. Cells were blocked for 10 min at RT with Blocking solution (100 mM Tris HCL pH8; 150 mM NaCL; 5 g/L Blocking Reagent [11096176001, Roche]), then incubated 90 min at RT with one of the following primary antibodies in Roche Blocking solution: 1:500, monoclonal Fab-A-VSH anti-MUC1-fs, AbD22655.2, Bio-Rad; 1:2000, monoclonal mouse anti-MUC1 (214D4), 05-652-KC, Millipore; 1:1000, monoclonal, Rabbit anti-GM130 (D6B1) XP, 12480, Cell signaling technology. The primary antibody cocktail was incubated at RT for 1.5 hr, followed by four PBS wash cycles. The secondary antibody cocktail contained four components that were all prepared at a 1:1000 dilution in the Roche blocking solution and consisted of Alexa Fluor® 488-conjugated AffiniPure F(ab′)2 Fragment Goat anti-Human IgG, 109-546-097, Jackson Immunoresearch; Alexa Fluor® 647-conjugated Goat anti-Rabbit IgG, A-21246, Thermo Fisher Scientific®; Alexa Fluor® 546 Goat anti-mouse IgG, A-21123, Thermo Fisher Scientific® and Hoechst 33342 stain (62249, Thermo Fisher Scientific®). The secondary antibody cocktail was incubated at RT for 45 min, followed by four PBS wash cycles. Finally, plates were sealed with a Plate Loc plate and stored in Liconic incubator at 10° C. until imaging. Following image analysis, three parameters were selected, i) MUC1-fs and ii) MUC1-wt total cytoplasm intensity (averaged per cell) and iii) cell number as was detected by Hoechst 33342 stained nuclei. The levels of MUC1-fs and MUC1-wt found following DMSO and JQ1 were defined as 0 and −100% activity, respectively. The values obtained for all compounds were normalized accordingly. Cell number was normalized to DMSO control.

MUC1-wt = assay: Immunofluorescence imaging of MUC1-wt in P cells (Example 2); type: cell-based; details: for EC50: 48 hr incubation, MUC1-wt; for WT ECMax (%) / WT EMax: 48 hr; for WT ECMax (%): DMSO = 0, JQ1 (250 nM) = −100% activity; for WT EMax: DMSO = 0, JQ1 = −100% activity, in %
Experimental: as §1

SMILES	EC50 (MUC1-fs; read-out: EC50(Spot))	EC50 (MUC1-wt; read-out: WT EC50 (Cytoplasm))	EC50 (MUC1-fs; read-out: EC50)	EC50 (MUC1-wt; read-out: WT EC50)	ECMax (%) (MUC1-fs)	WT ECMax (%) (MUC1-wt)	Emax (MUC1-fs)	WT EMax (MUC1-wt)
CC1CC[C@]2(C1)[C@H]1CC[C@H](C1)[C@H]2N.Cl (mixture of isomers) [Compound 210]	0.12 µM	> 32 µM			−62.47%	−10.67%		
CC[C@]1(C)[C@H]2CC[C@H](C2)[C@H]1N.Cl (racemic) [Compound 202-rac]	0.05 µM	2.11 µM			−76.19%	125.82%		
CCC1(CC)[C@H]2CC[C@H](C2)[C@H]1N.Cl (racemic) [Compound 204]	0.01 µM	1.01 µM			−85.02%	190.26%		
CCCC1(CCC)[C@H]2CC[C@H](C2)[C@H]1N.Cl (racemic) [Compound 205]	> 32 µM	> 32 µM			−3.08%	−12.24%		
C[C@@]1(Cc2ccccc2)[C@H]2CC[C@H](C2)[C@H]1N.Cl (racemic) [Compound 207]	> 32 µM	> 32 µM			−25.6%	5.9%		
Cl.N[C@@H]1[C@@H]2CC[C@@H](C2)C12CCC2 (racemic) [Compound 208, rac-spiro[bicyclo[2.2.1]heptane-3,1′-cyclobutan]-2-endo-amine hydrochloride]	0.13 µM	> 5.6 µM			−65.35%	~125%		
C[C@]1(c2ccccc2)[C@H]2CC[C@H](C2)[C@H]1N (racemic) [Compound 218, rac-(1R,2R,3R,4S)-3-methyl-3-phenylbicyclo[2.2.1]heptan-2-amine]			13.5 µM	> 16 µM			−54.7	−15.4
CC[C@@]1(Cc2ccccc2)[C@H]2CC[C@H](C2)[C@H]1N [Compound 222-P1, (1R,2R,3R,4S)-3-benzyl-3-ethylbicyclo[2.2.1]heptan-2-amine]			> 16 µM				−17.9	
CC[C@]1(Cc2ccccc2)[C@@H]2CC[C@@H](C2)[C@@H]1N [Compound 222-P2, (1S,2S,3S,4R)-3-benzyl-3-ethylbicyclo[2.2.1]heptan-2-amine]			> 16 µM				19.0	

Continued, in another order:

EC50 (MUC1-fs; read-out: EC50(Spot))	EC50 (MUC1-wt; read-out: WT EC50 (Cytoplasm))	EC50 (MUC1-fs; read-out: EC50)	EC50 (MUC1-wt; read-out: WT EC50)	SMILES	ECMax (%) (MUC1-fs)	WT ECMax (%) (MUC1-wt)	Emax (MUC1-fs)	WT EMax (MUC1-wt)
0.02 µM	> 1.8 µM			Cl.N[C@@H]1[C@@H]2CC[C@@H](C2)[C@]12CC=CCC2 (racemic) [Compound 213]	−86.49%	~175%		
0.11 µM	8.87 µM			Cl.N[C@@H]1[C@@H]2CC[C@@H](C2)C12CCCCCC2 (racemic) [Compound 215]	−56.54%	63%		
		> 16 µM	> 16 µM	Cl.NCC1CCCC2(C1)C1CCC(C1)C2N (racemic) [Compound 221, rac-3′-(aminomethyl)spiro[bicyclo[2.2.1]heptane-2,1′-cyclohexan]-3-amine hydrochloride]			16.2	15.6
		> 16 µM	> 16 µM	CN(C)CC1CCCC2(C1)C1CCC(C1)C2N.Cl (racemic) [Compound 223, rac-3′-((dimethylamino)methyl)spiro[bicyclo[2.2.1]heptane-2,1′-cyclohexan]-3-amine hydrochloride]			−12	25.7
		> 16 µM		Cl.N[C@@H]1[C@@H]2CC[C@@H](C2)[C@]12CCC[C@H](CO)C2 [Compound 220-P1, ((1S,2R,3R,3′S,4R)-3-aminospiro[bicyclo[2.2.1]heptane-2,1′-cyclohexan]-3′-yl)methanol hydrochloride]			6.0	
		> 16 µM		Cl.N[C@@H]1[C@@H]2CC[C@@H](C2)[C@]12CCC[C@@H](CO)C2 [Compound 220-P2, ((1S,2R,3R,3′R,4R)-3-aminospiro[bicyclo[2.2.1]heptane-2,1′-cyclohexan]-3′-yl)methanol hydrochloride]			9.4	
